Legend:
[1] = target: T1, GABAA receptors composed of the α4β3δ subunits (GABRA4/GABRB3/GABRD) (Homo sapiens, UniProt P28472+P48169); assay: Two Electrode Voltage Clamp (TEVC), GABA receptor potentiation in Xenopus laevis oocytes, α4β3δ; type: cell-based; conditions: 10 μM compound, 3 μM GABA, read-out: GABA (α4β3δ) % efficacy at 10 μM
T1 construct: expressed in transfected cells; host or cells: Xenopus laevis oocytes, injected (ratio 5:1:5)
Description: (§1) The Two Electrode Voltage Clamp (TEVC) technique was used to investigate the effects of compounds at a concentration of 10 μM on GABAA receptors composed of the α1β2γ2 or α4β3δ subunits expressed in oocytes from the Xenopus laevis. GABA-evoked currents were recorded from oocytes that expressed the GABA receptors and the modulatory effects of the test items on these currents were investigated.
(§2) Ovaries were harvested from Xenopus laevis females that had been deeply anesthetized by cooling at 4° C. and immersion in Tricaine methanesulfonate (MS-222 at a concentration of 150 mg/L) in sodium bicarbonate (300 mg/L). Once anesthetized the animal was decapitated and pithed following the rules of animal rights from the Geneva canton. A small piece of ovary was isolated for immediate preparation while the remaining part was placed at 4° C. in a sterile Barth solution containing in mM NaCl 88, KCl 1, NaHCO3 2.4, HEPES 10, MgSO4·7H2O 0.82, Ca(NO3)2·4H2O 0.33, CaCl2·6H2O 0.41, at pH 7.4, and supplemented with 20 μg/ml of kanamycin, 100 unit/ml penicillin and 100 μg/ml streptomycin. All recordings were performed at 18° C. and cells were super-fused with medium containing in mM: NaCl 82.5, KCl 2.5, HEPES 5, CaCl2·2H2O, ·6H2O 1, pH 7.4.
(§3) Plasmids containing the RNAs of the human GABRA1/GABRB2/GABRG2 and GABRA4/GABRB3/GABRD genes were injected into oocytes using a proprietary automated injection device (Hogg el al., J. Neurosci. Methods, (2008) 169: 65-75). These genes encode for the α1β2γ2 and α4β3δ GABAA subunits respectively. Receptor expression was assessed using electrophysiology at least two days later. The ratio of RNA injection for α1β2γ2 was 1:1:1 and for α4β3δ was 5:1:5. Electrophysiological recordings were made using an automated process equipped with standard TEVC and data were captured and analyzed using a proprietary data acquisition and analysis software running under Matlab (Mathworks Inc.). The membrane potential of the oocytes was maintained at −80 mV throughout the experiments. To explore the effects of proprietary compounds, currents were evoked by applying 10 μM (α1β2γ2) or 3 μM (α4β3δ) GABA for 30 s. These concentrations approximated the EC50 concentration of GABA at each receptor subtype. Oocytes were then re-exposed to GABA again for 30 s. 15 s after beginning the GABA application, test article was co-applied at a concentration of 10 μM for 15 s. Potentiation of the peak current was assessed. Data was filtered at 10 Hz, captured at 100 Hz and analyzed using proprietary data acquisition and analysis software running under Matlab (Mathworks Inc.). For statistical analysis values were computed either with Excel (Microsoft) or Matlab (mathworks Inc.). To obtain mean measurements with standard deviations, all experiments were carried out using at least three cells.

[2] = target: [35S]-TBPS binding in rat brain cortical membranes; assay: Steroid inhibition of [35S]-TBPS binding, rat brain cortical membranes; conditions: 3 nM [35S]-TBPS, in the presence of 5 μM GABA, read-out: 35S-TBPS Radioligand Displacement (IC50)
Description: TBPS binding assays using rat brain cortical membranes in the presence of 5 μM GABA has been described (Gee et al, J. Pharmacol. Exp. Ther. 1987, 241, 346-353; Hawkinson et al, Mol. Pharmacol. 1994, 46, 977-985; Lewin, A. H et al., Mol. Pharmacol. 1989, 35, 189-194).
Briefly, cortices are rapidly removed following decapitation of carbon dioxide-anesthetized Sprague-Dawley rats (200-250 g). The cortices are homogenized in 10 volumes of ice-cold 0.32 M sucrose using a glass/teflon homogenizer and centrifuged at 1500×g for 10 min at 4° C. The resultant supernatants are centrifuged at 10,000×g for 20 min at 4° C. to obtain the P2 pellets. The P2 pellets are resuspended in 200 mM NaCl/50 mM Na—K phosphate pH 7.4 buffer and centrifuged at 10,000×g for 10 min at 4° C. This washing procedure is repeated twice and the pellets are resuspended in 10 volumes of buffer. Aliquots (100 μL) of the membrane suspensions are incubated with 3 nM [^35S]-TBPS and 5 μL aliquots of test drug dissolved in dimethyl sulfoxide (DMSO) (final 0.5%) in the presence of 5 μM GABA. The incubation is brought to a final volume of 1.0 mL with buffer. Nonspecific binding is determined in the presence of 2 μM unlabeled TBPS and ranged from 15 to 25%. Following a 90 min incubation at room temp, the assays are terminated by filtration through glass fiber filters (Schleicher and Schuell No. 32) using a cell harvester (Brandel) and rinsed three times with ice-cold buffer. Filter bound radioactivity is measured by liquid scintillation spectrometry. Non-linear curve fitting of the overall data for each drug averaged for each concentration is done using Prism (GraphPad). […] The concentration of test compound producing 50% inhibition (IC50) of specific binding and the maximal extent of inhibition (Imax) are determined for the individual experiments with the same model used for the overall data and then the mean±SEM.s of the individual experiments are calculated.
Various compounds are or can be screened to determine their potential as modulators of [^35S]-TBPS binding in vitro. These assays are or can be performed in accordance with the above discussed procedures.

[3] = target: T2, GABAA receptors composed of the α1β2γ2 subunits (GABRA1/GABRB2/GABRG2) (Homo sapiens, UniProt P14867+P47870); assay: Two Electrode Voltage Clamp (TEVC), GABA receptor potentiation in Xenopus laevis oocytes, α1β2γ2; type: cell-based; conditions: 10 μM compound, 10 μM GABA, read-out: GABA (α1β2γ2) % efficacy at 10 μM
T2 construct: expressed in transfected cells; host or cells: Xenopus laevis oocytes, injected (ratio 1:1:1)
T2 sequence (P14867 28-456): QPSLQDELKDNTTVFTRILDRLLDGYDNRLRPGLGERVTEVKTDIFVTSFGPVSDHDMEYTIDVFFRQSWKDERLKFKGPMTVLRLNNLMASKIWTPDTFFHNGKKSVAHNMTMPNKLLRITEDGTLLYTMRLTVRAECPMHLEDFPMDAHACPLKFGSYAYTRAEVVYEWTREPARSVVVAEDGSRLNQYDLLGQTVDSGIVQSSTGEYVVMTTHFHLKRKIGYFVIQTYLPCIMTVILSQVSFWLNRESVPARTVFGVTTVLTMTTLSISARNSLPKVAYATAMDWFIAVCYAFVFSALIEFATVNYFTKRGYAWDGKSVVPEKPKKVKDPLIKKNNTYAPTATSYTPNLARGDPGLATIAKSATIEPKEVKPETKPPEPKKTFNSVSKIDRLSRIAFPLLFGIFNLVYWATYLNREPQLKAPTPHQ
T2 sequence (P47870 26-512): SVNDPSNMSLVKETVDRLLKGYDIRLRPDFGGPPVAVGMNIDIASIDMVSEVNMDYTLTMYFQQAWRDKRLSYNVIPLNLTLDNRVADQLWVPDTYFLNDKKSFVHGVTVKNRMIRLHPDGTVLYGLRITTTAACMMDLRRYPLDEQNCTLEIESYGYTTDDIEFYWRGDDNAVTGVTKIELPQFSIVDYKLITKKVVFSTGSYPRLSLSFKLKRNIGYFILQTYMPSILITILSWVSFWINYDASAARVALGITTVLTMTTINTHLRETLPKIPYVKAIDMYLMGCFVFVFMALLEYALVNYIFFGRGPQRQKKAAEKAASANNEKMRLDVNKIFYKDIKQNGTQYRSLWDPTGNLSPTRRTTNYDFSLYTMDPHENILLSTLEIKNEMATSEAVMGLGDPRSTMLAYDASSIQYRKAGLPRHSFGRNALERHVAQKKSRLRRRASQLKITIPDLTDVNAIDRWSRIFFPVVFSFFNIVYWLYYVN
T2 sequence (P18507 40-475 partner): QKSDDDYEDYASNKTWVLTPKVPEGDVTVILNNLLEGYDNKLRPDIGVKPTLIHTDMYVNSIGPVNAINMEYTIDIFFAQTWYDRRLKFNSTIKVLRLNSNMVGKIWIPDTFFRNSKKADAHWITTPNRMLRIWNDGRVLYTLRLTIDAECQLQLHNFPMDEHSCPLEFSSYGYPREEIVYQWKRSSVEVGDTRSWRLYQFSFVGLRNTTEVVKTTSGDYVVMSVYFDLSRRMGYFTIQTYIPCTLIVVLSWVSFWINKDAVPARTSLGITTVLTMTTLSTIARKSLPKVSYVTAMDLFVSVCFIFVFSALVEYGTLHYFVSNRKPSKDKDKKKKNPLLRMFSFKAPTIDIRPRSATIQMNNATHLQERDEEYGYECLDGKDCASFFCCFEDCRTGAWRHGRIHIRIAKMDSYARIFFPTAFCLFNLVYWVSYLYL
Description: as §1, §2, §3

T1 sequence (P48169 36-554): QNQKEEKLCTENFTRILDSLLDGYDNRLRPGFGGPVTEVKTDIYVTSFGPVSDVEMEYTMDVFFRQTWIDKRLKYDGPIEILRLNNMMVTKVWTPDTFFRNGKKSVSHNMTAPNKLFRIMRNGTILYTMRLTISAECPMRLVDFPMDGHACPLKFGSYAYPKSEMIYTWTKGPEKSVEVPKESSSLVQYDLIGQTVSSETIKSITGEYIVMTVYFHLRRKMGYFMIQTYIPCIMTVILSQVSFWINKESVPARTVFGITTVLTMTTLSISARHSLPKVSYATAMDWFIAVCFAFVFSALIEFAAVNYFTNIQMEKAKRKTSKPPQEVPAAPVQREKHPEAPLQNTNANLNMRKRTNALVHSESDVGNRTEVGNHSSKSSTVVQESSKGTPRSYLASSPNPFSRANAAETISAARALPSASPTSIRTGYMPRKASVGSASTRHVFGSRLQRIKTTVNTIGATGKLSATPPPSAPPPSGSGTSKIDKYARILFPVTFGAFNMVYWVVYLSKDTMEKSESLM
T1 sequence (P28472 26-473): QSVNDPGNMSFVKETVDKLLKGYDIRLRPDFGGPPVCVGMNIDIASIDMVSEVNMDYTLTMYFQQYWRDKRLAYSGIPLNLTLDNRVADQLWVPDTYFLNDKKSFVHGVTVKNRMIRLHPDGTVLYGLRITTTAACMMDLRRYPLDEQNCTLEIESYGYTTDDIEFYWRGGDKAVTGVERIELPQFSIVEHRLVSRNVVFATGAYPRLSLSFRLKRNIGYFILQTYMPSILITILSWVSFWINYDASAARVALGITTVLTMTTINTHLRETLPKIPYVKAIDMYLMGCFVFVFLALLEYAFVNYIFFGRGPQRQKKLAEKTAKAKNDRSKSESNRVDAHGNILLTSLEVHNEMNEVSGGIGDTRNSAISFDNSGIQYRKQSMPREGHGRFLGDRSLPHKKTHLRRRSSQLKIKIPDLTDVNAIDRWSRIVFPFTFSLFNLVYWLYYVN
T1 sequence (O14764 25-452 partner): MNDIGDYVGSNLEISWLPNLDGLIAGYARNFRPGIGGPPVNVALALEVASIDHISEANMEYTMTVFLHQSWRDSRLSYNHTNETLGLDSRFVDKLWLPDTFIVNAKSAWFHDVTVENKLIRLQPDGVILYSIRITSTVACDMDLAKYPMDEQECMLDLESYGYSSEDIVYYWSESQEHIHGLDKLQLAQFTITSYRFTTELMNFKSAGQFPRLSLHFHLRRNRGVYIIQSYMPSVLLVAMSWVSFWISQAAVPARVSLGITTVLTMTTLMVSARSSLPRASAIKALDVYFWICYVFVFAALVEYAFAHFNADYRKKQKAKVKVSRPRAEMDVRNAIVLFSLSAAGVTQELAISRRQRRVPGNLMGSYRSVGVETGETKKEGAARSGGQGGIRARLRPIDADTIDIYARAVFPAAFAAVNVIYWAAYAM

| Compound | Emax at 10 µM [1] [%] | IC50 [2] [nM] | Emax at 10 µM [3] [%] |
| --- | --- | --- | --- |
| COC[C@]12CC[C@@](C)(O)C[C@@H]1CC[C@H]1[C@@H]3CC[C@H](C(=O)Cn4nnc5cccc(Cl)c54)[C@@]3(C)CC[C@@H]12 [Compound 59] | 500 to 1000 | 10 to 50 | 500 to 1000 |
| COC[C@]12CC[C@@](C)(O)C[C@@H]1CC[C@H]1[C@@H]3CC[C@H](C(=O)Cn4nnc5ccc(OC)c(OC)c54)[C@@]3(C)CC[C@@H]12 [Compound 62] | 1000 to 1500 | 10 to 50 | 500 to 1000 |
| COC[C@]12CC[C@@](C)(O)C[C@@H]1CC[C@H]1[C@@H]3CC[C@H](C(=O)Cn4nc5ccc(OC)c(OC)c5n4)[C@@]3(C)CC[C@@H]12 [Compound 64] | 500 to 1000 | 10 to 50 | 1000 to 1500 |
| COC[C@]12CC[C@@](C)(O)C[C@@H]1CC[C@H]1[C@@H]3CC[C@H](C(=O)Cn4nnc5c(OC)cc(OC)cc54)[C@@]3(C)CC[C@@H]12 [Compound 66] | 1000 to 1500 | 10 to 50 | 50 to 500 |
| COC[C@]12CC[C@@](C)(O)C[C@@H]1CC[C@H]1[C@@H]3CC[C@H](C(=O)Cn4ncc5ncc(Br)cc54)[C@@]3(C)CC[C@@H]12 [Compound 67] | 500 to 1000 | 10 to 50 | 50 to 500 |
| COC[C@]12CC[C@@](C)(O)C[C@@H]1CC[C@H]1[C@@H]3CC[C@H](C(=O)Cn4cc5ncc(Cl)cc5n4)[C@@]3(C)CC[C@@H]12 [Compound 68] | 1000 to 1500 | 10 to 50 | 50 to 500 |
| COC[C@]12CC[C@@](C)(O)C[C@@H]1CC[C@H]1[C@@H]3CC[C@H](C(=O)Cn4ncc5ncc(Cl)cc54)[C@@]3(C)CC[C@@H]12 [Compound 69] | 1000 to 1500 | 10 to 50 | 500 to 1000 |
| CCOC[C@]12CC[C@@](C)(O)C[C@@H]1CC[C@H]1[C@@H]3CC[C@H](C(=O)Cn4nnc5ccc(Cl)cc54)[C@@]3(C)CC[C@@H]12 [Compound 70] | 1000 to 1500 | 50 to 100 | 50 to 500 |
| CCOC[C@]12CC[C@@](C)(O)C[C@@H]1CC[C@H]1[C@@H]3CC[C@H](C(=O)Cn4nnc5cc(Cl)ccc54)[C@@]3(C)CC[C@@H]12 [Compound 71] | 1000 to 1500 | 10 to 50 | 50 to 500 |
| CCOC[C@]12CC[C@@](C)(O)C[C@@H]1CC[C@H]1[C@@H]3CC[C@H](C(=O)Cn4nc5ccc(Cl)cc5n4)[C@@]3(C)CC[C@@H]12 [Compound 72] | 1000 to 1500 | 10 to 50 | 50 to 500 |
| COC[C@]12CC[C@@](C)(O)C[C@H]1CC[C@H]1[C@@H]3CC[C@H](C(=O)Cn4nnc5c(F)cccc54)[C@@]3(C)CC[C@@H]12 [Compound 82] | 500 to 1000 |  | 500 to 1000 |
| COC[C@]12CC[C@@](C)(O)C[C@@H]1CC[C@H]1[C@@H]3CC[C@H](C(=O)Cn4cc5ccc(F)cc5n4)[C@@]3(C)CC[C@@H]12 [Compound 111] |  | 50 to 100 | 500 to 1000 |
| COC[C@]12CC[C@@](C)(O)C[C@@H]1CC[C@H]1[C@@H]3CC[C@H](C(=O)Cn4ncc5ccc(Cl)cc54)[C@@]3(C)CC[C@@H]12 [Compound 112] |  | 50 to 100 | 50 to 500 |

From patent US12071453B2, “Neuroactive steroids, compositions, and uses thereof” (Sage Therapeutics, Inc., priority 2013, dated 2024)
